Experimental data: ChEMBL document CHEMBL3585344, “Thiazole-based aminopyrimidines and N-phenylpyrazolines as potent antimicrobial agents: synthesis and biological evaluation” (2014)
≈ marks a conversion by molar mass, not a printed value.

Key:
Staphylococcus aureus [1] = experiment: Antibacterial activity against Staphylococcus aureus ATCC 6538 after 24 hrs by microdilution method; format: functional; settings: ATCC 6538, 24 h
Bacillus cereus [2] = experiment: Antibacterial activity against Bacillus cereus clinical isolate after 24 hrs by microdilution method; format: functional
Micrococcus flavus [3] = experiment: Antibacterial activity against Micrococcus flavus ATCC 10240 after 24 hrs by microdilution method; format: functional; settings: ATCC 10240, 24 h
Listeria monocytogenes [4] = experiment: Antibacterial activity against Listeria monocytogenes NCTC 7973 after 24 hrs by microdilution method; format: functional; settings: NCTC 7973, 24 h
Staphylococcus aureus [5] = experiment: Bactericidal activity against Staphylococcus aureus ATCC 6538 after 72 hrs by microdilution method; format: functional
Bacillus cereus [6] = experiment: Bactericidal activity against Bacillus cereus clinical isolate after 72 hrs by microdilution method; format: functional
Micrococcus flavus [7] = experiment: Bactericidal activity against Micrococcus flavus ATCC 10240 after 72 hrs by microdilution method; format: functional
Listeria monocytogenes [8] = experiment: Bactericidal activity against Listeria monocytogenes NCTC 7973 after 72 hrs by microdilution method; format: functional
Pseudomonas aeruginosa [9] = experiment: Antibacterial activity against Pseudomonas aeruginosa ATCC 27853 after 24 hrs by microdilution method; format: functional; settings: ATCC 27853, 24 h
Salmonella typhimurium [10] = experiment: Antibacterial activity against Salmonella typhimurium ATCC 13311 after 24 hrs by microdilution method; format: functional, Salmonella enterica subsp. enterica serovar Typhimurium; settings: Salmonella enterica, ATCC 13311, 24 h
Escherichia coli [11] = experiment: Antibacterial activity against Escherichia coli ATCC 35210 after 24 hrs by microdilution method; format: functional; settings: ATCC 35210, 24 h
Enterobacter cloacae [12] = experiment: Antibacterial activity against Enterobacter cloacae ATCC 35030 isolated from human after 24 hrs by microdilution method; format: functional; settings: ATCC 35030, 24 h
Pseudomonas aeruginosa [13] = experiment: Bactericidal activity against Pseudomonas aeruginosa ATCC 27853 after 72 hrs by microdilution method; format: functional
Salmonella typhimurium [14] = experiment: Bactericidal activity against Salmonella typhimurium ATCC 13311 after 72 hrs by microdilution method; format: functional, Salmonella enterica subsp. enterica serovar Typhimurium
Escherichia coli [15] = experiment: Bactericidal activity against Escherichia coli ATCC 35210 after 72 hrs by microdilution method; format: functional
Enterobacter cloacae [16] = experiment: Bactericidal activity against Enterobacter cloacae ATCC 35030 isolated from human after 72 hrs by microdilution method; format: functional
Aspergillus ochraceus [17] = experiment: Antifungal activity against Aspergillus ochraceus ATCC 12066 after 72 hrs by microdilution method; format: functional; settings: ATCC 12066, 72 h
Aspergillus versicolor [18] = experiment: Antifungal activity against Aspergillus versicolor ATCC 11730 after 72 hrs by microdilution method; format: functional; settings: ATCC 11730, 72 h
Aspergillus niger [19] = experiment: Antifungal activity against Aspergillus niger ATCC 6275 after 72 hrs by microdilution method; format: functional; settings: ATCC 6275, 72 h
Aspergillus fumigatus [20] = experiment: Antifungal activity against Aspergillus fumigatus isolated from human after 72 hrs by microdilution method; format: functional
Aspergillus ochraceus [21] = experiment: Fungicidal activity against Aspergillus ochraceus ATCC 12066 after 72 hrs by microdilution method; format: functional
Aspergillus versicolor [22] = experiment: Fungicidal activity against Aspergillus versicolor ATCC 11730 after 72 hrs by microdilution method; format: functional
Aspergillus niger [23] = experiment: Fungicidal activity against Aspergillus niger ATCC 6275 after 72 hrs by microdilution method; format: functional
Aspergillus fumigatus [24] = experiment: Fungicidal activity against Aspergillus fumigatus isolated from human after 72 hrs by microdilution method; format: functional
Trichoderma viride [25] = experiment: Antifungal activity against Trichoderma viride IAM 5061 after 72 hrs by microdilution method; format: functional; settings: IAM 5061, 72 h
Penicillium ochrochloron [26] = experiment: Antifungal activity against Penicillium ochrochloron ATCC 9112 after 72 hrs by microdilution method; format: functional; settings: ATCC 9112, 72 h
Talaromyces funiculosus [27] = experiment: Antifungal activity against Penicillium funiculosum ATCC 36839 after 72 hrs by microdilution method; format: functional; settings: ATCC 36839, 72 h
Candida albicans [28] = experiment: Antifungal activity against Candida albicans ATCC 10231 isolated from human after 72 hrs by microdilution method; format: functional; settings: ATCC 10231, 72 h
Trichoderma viride [29] = experiment: Fungicidal activity against Trichoderma viride IAM 5061 after 72 hrs by microdilution method; format: functional
Penicillium ochrochloron [30] = experiment: Fungicidal activity against Penicillium ochrochloron ATCC 9112 after 72 hrs by microdilution method; format: functional
Talaromyces funiculosus [31] = experiment: Fungicidal activity against Penicillium funiculosum ATCC 36839 after 72 hrs by microdilution method; format: functional
Candida albicans [32] = experiment: Fungicidal activity against Candida albicans ATCC 10231 isolated from human after 72 hrs by microdilution method; format: functional

| MIC (Staphylococcus aureus [1]) [µM] | MIC (Bacillus cereus [2]) [µM] | MIC (Micrococcus flavus [3]) [µM] | MIC (Listeria monocytogenes [4]) [µM] | MIC (Pseudomonas aeruginosa [9]) [µM] | MIC (Salmonella typhimurium [10]) [µM] | MIC (Escherichia coli [11]) [µM] | MIC (Enterobacter cloacae [12]) [µM] | MIC (Aspergillus ochraceus [17]) [µM] | MIC (Aspergillus versicolor [18]) [µM] | MIC (Aspergillus niger [19]) [µM] | MIC (Aspergillus fumigatus [20]) [µM] | SMILES | MBC99.5 (Staphylococcus aureus [5]) [×10⁻² umol/ml] | MBC99.5 (Bacillus cereus [6]) [×10⁻² umol/ml] | MBC99.5 (Micrococcus flavus [7]) [×10⁻² umol/ml] | MBC99.5 (Listeria monocytogenes [8]) [×10⁻² umol/ml] | MBC99.5 (Pseudomonas aeruginosa [13]) [×10⁻² umol/ml] | MBC99.5 (Salmonella typhimurium [14]) [×10⁻² umol/ml] | MBC99.5 (Escherichia coli [15]) [×10⁻² umol/ml] | MBC99.5 (Enterobacter cloacae [16]) [×10⁻² umol/ml] | also measured |
| --- | --- | --- | --- | --- | --- | --- | --- | --- | --- | --- | --- | --- | --- | --- | --- | --- | --- | --- | --- | --- | --- |
| 105 (≈ 40.2 µg/mL) | 157 (≈ 60.1 µg/mL) | 105 (≈ 40.2 µg/mL) | 52 (≈ 19.9 µg/mL) | 152 (≈ 58.2 µg/mL) | 152 (≈ 58.2 µg/mL) | 183 (≈ 70.1 µg/mL) | 131 (≈ 50.2 µg/mL) | 131 (≈ 50.2 µg/mL) | 131 (≈ 50.2 µg/mL) | 131 (≈ 50.2 µg/mL) | 131 (≈ 50.2 µg/mL) | CNc1nc(C)c(C2=NN(c3ccccc3)C(c3ccc(Cl)cc3)C2)s1 (stereo not drawn) | 21 | 31.4 | 21 | 10.5 | 31.4 | 18.3 | 21 | 18.3 | MFC99.5 (Aspergillus ochraceus [21]): 15.7 ×10⁻² umol/ml; MFC99.5 (Aspergillus versicolor [22]): 21 ×10⁻² umol/ml; MFC99.5 (Aspergillus niger [23]): 26.2 ×10⁻² umol/ml; MFC99.5 (Aspergillus fumigatus [24]): 26.2 ×10⁻² umol/ml; MIC (Trichoderma viride [25]): 131 µM (≈ 50.2 µg/mL); MIC (Penicillium ochrochloron [26]): 131 µM (≈ 50.2 µg/mL); MIC (Talaromyces funiculosus [27]): 262 µM (≈ 100 µg/mL); MIC (Candida albicans [28]): 157 µM (≈ 60.1 µg/mL); MFC99.5 (Trichoderma viride [29]): 21 ×10⁻² umol/ml; MFC99.5 (Penicillium ochrochloron [30]): 15.7 ×10⁻² umol/ml; MFC99.5 (Talaromyces funiculosus [31]): 36.7 ×10⁻² umol/ml; MFC99.5 (Candida albicans [32]): 26.2 ×10⁻² umol/ml |
| 102 (≈ 40.1 µg/mL) | 203 (≈ 79.9 µg/mL) | 127 (≈ 50 µg/mL) | 76 (≈ 29.9 µg/mL) | 203 (≈ 79.9 µg/mL) | 152 (≈ 59.8 µg/mL) | 178 (≈ 70 µg/mL) | 127 (≈ 50 µg/mL) | 127 (≈ 50 µg/mL) | 254 (≈ 99.9 µg/mL) | 254 (≈ 99.9 µg/mL) | 127 (≈ 50 µg/mL) | CNc1nc(C)c(C2=NN(c3ccccc3)C(c3ccc([N+](=O)[O-])cc3)C2)s1 (stereo not drawn) | 20.3 | 25.4 | 20.3 | 10.2 | 25.4 | 25.4 | 20.3 | 20.3 | MFC99.5 (Aspergillus ochraceus [21]): 20.3 ×10⁻² umol/ml; MFC99.5 (Aspergillus versicolor [22]): 32.2 ×10⁻² umol/ml; MFC99.5 (Aspergillus niger [23]): 32.2 ×10⁻² umol/ml; MFC99.5 (Aspergillus fumigatus [24]): 15.2 ×10⁻² umol/ml; MIC (Trichoderma viride [25]): 127 µM (≈ 50 µg/mL); MIC (Penicillium ochrochloron [26]): 254 µM (≈ 99.9 µg/mL); MIC (Talaromyces funiculosus [27]): 254 µM (≈ 99.9 µg/mL); MIC (Candida albicans [28]): 305 µM (≈ 120 µg/mL); MFC99.5 (Trichoderma viride [29]): 15.2 ×10⁻² umol/ml; MFC99.5 (Penicillium ochrochloron [30]): 32.2 ×10⁻² umol/ml; MFC99.5 (Talaromyces funiculosus [31]): 32.2 ×10⁻² umol/ml; MFC99.5 (Candida albicans [32]): 40.6 ×10⁻² umol/ml |
| 106 (≈ 40.1 µg/mL) | 158 (≈ 59.8 µg/mL) | 106 (≈ 40.1 µg/mL) | 53 (≈ 20.1 µg/mL) | 158 (≈ 59.8 µg/mL) | 185 (≈ 70 µg/mL) | 185 (≈ 70 µg/mL) | 132 (≈ 50 µg/mL) | 132 (≈ 50 µg/mL) | 132 (≈ 50 µg/mL) | 132 (≈ 50 µg/mL) | 264 (≈ 99.9 µg/mL) | CNc1nc(C)c(C2=NN(c3ccccc3)C(c3ccc(OC)cc3)C2)s1 (stereo not drawn) | 15.8 | 26.4 | 15.8 | 10.6 | 26.4 | 26.4 | 21.1 | 18.5 | MFC99.5 (Aspergillus ochraceus [21]): 13.2 ×10⁻² umol/ml; MFC99.5 (Aspergillus versicolor [22]): 21.1 ×10⁻² umol/ml; MFC99.5 (Aspergillus niger [23]): 26.4 ×10⁻² umol/ml; MFC99.5 (Aspergillus fumigatus [24]): 37 ×10⁻² umol/ml; MIC (Trichoderma viride [25]): 132 µM (≈ 50 µg/mL); MIC (Penicillium ochrochloron [26]): 264 µM (≈ 99.9 µg/mL); MIC (Talaromyces funiculosus [27]): 264 µM (≈ 99.9 µg/mL); MIC (Candida albicans [28]): 264 µM (≈ 99.9 µg/mL); MFC99.5 (Trichoderma viride [29]): 13.2 ×10⁻² umol/ml; MFC99.5 (Penicillium ochrochloron [30]): 37 ×10⁻² umol/ml; MFC99.5 (Talaromyces funiculosus [31]): 37 ×10⁻² umol/ml; MFC99.5 (Candida albicans [32]): 37 ×10⁻² umol/ml |
| 126 (≈ 49.8 µg/mL) | 152 (≈ 60.1 µg/mL) | 126 (≈ 49.8 µg/mL) | 76 (≈ 30.1 µg/mL) | 152 (≈ 60.1 µg/mL) | 202 (≈ 79.9 µg/mL) | 101 (≈ 39.9 µg/mL) | 126 (≈ 49.8 µg/mL) | 126 (≈ 49.8 µg/mL) | 126 (≈ 49.8 µg/mL) | 253 (≈ 100 µg/mL) | 126 (≈ 49.8 µg/mL) | Cc1nc(-c2ccccc2)sc1C1=NN(c2ccccc2)C(c2ccccc2)C1 (stereo not drawn) | 20.2 | 30.4 | 20.2 | 10.1 | 25.3 | 25.3 | 17.7 | 17.7 | MFC99.5 (Aspergillus ochraceus [21]): 20.2 ×10⁻² umol/ml; MFC99.5 (Aspergillus versicolor [22]): 15.2 ×10⁻² umol/ml; MFC99.5 (Aspergillus niger [23]): 32.2 ×10⁻² umol/ml; MFC99.5 (Aspergillus fumigatus [24]): 15.2 ×10⁻² umol/ml; MIC (Trichoderma viride [25]): 126 µM (≈ 49.8 µg/mL); MIC (Penicillium ochrochloron [26]): 253 µM (≈ 100 µg/mL); MIC (Talaromyces funiculosus [27]): 253 µM (≈ 100 µg/mL); MIC (Candida albicans [28]): 253 µM (≈ 100 µg/mL); MFC99.5 (Trichoderma viride [29]): 25.3 ×10⁻² umol/ml; MFC99.5 (Penicillium ochrochloron [30]): 32.2 ×10⁻² umol/ml; MFC99.5 (Talaromyces funiculosus [31]): 32.2 ×10⁻² umol/ml; MFC99.5 (Candida albicans [32]): 30.4 ×10⁻² umol/ml |
